In patent US20100240754A1, “UNSATURATED FATTY AMINO ACID DERIVATIVES AND USE THEREOF IN DERMAL COSMETOLOGY” (Pierre Fabre Demo-Cosmetique, priority 2007, published 2010):

Tests used:
Assay type in all cases: cell-based, murine
fibroblast line L929 = assay: Test of TBARS: lipid peroxidation after H2O2-Fe2+/Fe3+ stress; conditions: 400 μg/mL
[1] = system: fibroblast cell line L929; assay: In vitro assay of intracellular OASes (H2DCF-DA probe) after H2O2/iron oxidative stress; conditions: dose 400 μg/mL; L929, H2O2/iron stress
Excerpt: We have set up a model for an in vitro study of oxidative stress induced by H2O2/iron, H2O2 which massively generates intracellular OASes by a chain reaction triggered by the oxidation of membrane lipids.
This technique is based on the use of a fluorescent probe, 6-carboxy-2′, 7′ dichlorodihydrofluorescein diacetate, di(acetoxymethyl ester) (H2DCF-DA), which, once it has penetrated the cell, is deacetylated by the intracellular esterases then forming H2DCF. This product is oxidized by intracellular OASes into a highly fluorescent compound: 2′,7′-dichlorofluorescein, (DCF) (Suematsu M et al, 1996, Free Radicals Practical Approach, Punchard ed. P83-99).
Cutaneous murine fibroblast cell line L929.
The tested concentrations are non-cytotoxic concentrations. Cytoxicity was evaluated by the neutral red method, after incubation of the product for 3 hours.
The reference anti-radical product is vitamin E or α-tocopherol (MW: 430.7) (SIGMA, ref.: T-1539).
The mother solution is prepared at 400 mg/mL in DMSO and stored at −20° C. The pretreatment solution is prepared extemporaneously at 400 μg/mL in a culture medium without FCS.
For evaluating unsaturated fatty amino acid derivatives, the dilutions are prepared in the culture medium extemporaneously for a range of concentrations of 0.02, 0.2, 2 and 20 ng/mL.
The cells of the fibroblast line L929 are sown in microplates with 96 wells with a flat bottom in 100 μL of DMEM supplemented with 10% of FCS, and they are then incubated overnight at 37° C. in a humid atmosphere with 5% CO2.
The dilutions of the products to be tested and of the reference molecule are conducted in culture mediums without FCS, and then deposited in 7 wells in an amount of 100 μL per well.
The cells are then incubated for 3 hours at 37° C. in a humid atmosphere with 5% CO2.
The cells are rinsed with PBS 1× in an amount of 100 μL per well. Next they are set to incubate for 30 min at 37° C. in a humid atmosphere with 5% CO2 and with 50 μL of H2DCF-DA probe at 5 μM.
After 30 min in contact with the probe alone, the cells are incubated for 30 min at 37° C. in a humid atmosphere with […] with addition of 25 μL of H2O2 at 800 μM and 25 μL of 8 mM ferrous and ferric iron solution, in order to have final concentrations of 200 μM of H2O2 and 2 mM of ferrous and ferric iron.
The cells are then rinsed with PBS 1× in an amount of 100 μL per well, and then incubated for 30 min at 37° C. in a humid atmosphere with 5% CO2 and with 100 μL of PBS 1×.
These 1 h 30 minutes of incubation at 37° C. allow the intracellular esterases to deacetylate the H2DCF probe, oxidizable by intracellular OASes into DCF; a fluorescent compound, the formation of which is proportional to the amount of intracellular OASes.
The fluorescence intensity is read with the cytofluorimeter at λexcitation=485 nm and λemission=530 nm. It reflects the amount of produced intracellular OASes.
With the below ratio, it is possible to calculate for each concentration of tested product the % of protection against production of intracellular OASes (since the fluorescence intensity or FI expresses intracellular release of OASes).
The values indicated in Table 3 are percentages of inhibition of intracellular OAS production following an exogenous oxidative stress, relatively to <> cells (100%) and to <> cells (0%).

B16-F10 line = assay: Synthesis of melanin, colorimetric assay, basal and after alpha MSH stimulation; conditions: Mus musculus, alpha MSH-stimulated B16-F10, read-out: inhibition of melanogenesis
Method: 6.1) The modulating effect of unsaturated fatty amino-acid derivatives on melanogenesis was analyzed. For this, a measurement of the synthesis of melanin by a colorimetric assay is carried out on a cell line of murine melanomas: the B16-F10 line.
The effect of the products is investigated in a basal situation and after stimulating melanogenesis by a MSH for determining the depigmenting power.
The level of extracellular and intracellular melanin is then measured by spectrophotometry at a wave length of 405 nm according to the procedure (Meun, Y. J. et al.). The amount of pigment is determined by a standard range of melanin and by analysis on the Microwin software package (Berthold Biotechnologies). An assay of total proteins is conducted for samples of intracellular melanin by the BCA-Copper method at 540 nm. The standard range is produced with a standard protein, BSA (Bovine Albumin Serum).

Cc1c(C)c2c(c(C)c1O)CC[C@@](C)(CCC[C@H](C)CCC[C@H](C)CCCC(C)C)O2 [Vitamin E, α-tocopherol, reference compound]
protection against lipid peroxidation, in words (fibroblast line L929): very effectively protects cell membranes | percentage of inhibition of intracellular OAS production (protection) [1]: 31%

Oc1ccc(O)cc1 [hydroquinone, reference compound]
inhibition at 1 µg/mL (B16-F10 line; 1 μg/mL): ~60%

O=C1O[C@H]([C@@H](O)CO)C(O)=C1O [vitamin C, reference compound]
inhibition at 40 µg/mL (B16-F10 line; 40 μg/mL): ~60%
